The assay concerns the target human recombinant H-PGDS (Homo sapiens, UniProt O60760). As to the kind of experiment: Fluorescence intensity h-PGDS TBA enzyme assay. The class given is biochemical. The note with it: Examples up to 622 (and 3a, 3b).
human recombinant H-PGDS, sequence (O60760 whole entry): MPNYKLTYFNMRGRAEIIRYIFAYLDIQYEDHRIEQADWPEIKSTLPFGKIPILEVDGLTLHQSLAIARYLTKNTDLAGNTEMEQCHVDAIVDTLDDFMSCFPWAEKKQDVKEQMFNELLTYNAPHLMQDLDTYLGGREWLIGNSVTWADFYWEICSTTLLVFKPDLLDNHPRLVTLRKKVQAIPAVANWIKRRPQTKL
The IC50 is the concentration at which inhibition is half-maximal. On to `CN(CC1CC1)C(=O)c1ccc(N2CCC(NC(=O)c3ccc(-c4cccc(F)c4)nc3)CC2)nc1` [Example 574, N-(Cyclopropylmethyl)-6-[4-({[6-(3-fluorophenyl)pyridin-3-yl]carbonyl}amino)piperidin-1-yl]-N-methylnicotinamide], for which the IC50 was determined as 1.24 nM.
Take `CC(C)CN(C)C(=O)c1ccc(N2CCC(NC(=O)c3ccc(-c4cccc(F)c4)nc3)CC2)nc1` [Example 575, 6-[4-({[6-(3-Fluorophenyl)pyridin-3-yl]carbonyl}amino)piperidin-1-yl]-N-isobutyl-N-methylnicotinamide]: the IC50 was 2.24 nM.
To `CN(CCC#N)C(=O)c1ccc(N2CCC(NC(=O)c3ccc(-c4cccc(F)c4)nc3)CC2)nc1` [Example 576, N-(2-Cyanoethyl)-6-[4-({[6-(3-fluorophenyl)pyridin-3-yl]carbonyl}amino)piperidin-1-yl]-N-methylnicotinamide] belongs 0.561 nM; to `O=C(NC1CCN(CC(F)(F)F)CC1)c1ccc(N2CCC(NC(=O)c3ccc(-c4cccc(F)c4)nc3)CC2)nc1` [Example 577, 6-(3-Fluorophenyl)-N-{1-[5-({[1-(2,2,2-trifluoroethyl)piperidin-4-yl]amino}carbonyl)pyridin-2-yl]piperidin-4-yl}nicotinamide], 1.48 nM; to `CC1C=CC(C)N1C(=O)c1ccc(N2CCC(NC(=O)c3ccc(-c4cccc(F)c4)nc3)CC2)nc1` (stereo not shown) [Example 578, N-(1-{5-[(2,5-Dimethyl-2,5-dihydro-1H-pyrrol-1-yl)carbonyl]pyridin-2-yl}piperidin-4-yl)-6-(3-fluorophenyl)nicotinamide], 3.1 nM.
Turning to `O=C(NC1CCN(c2ncc3c(n2)CCOC3)CC1)c1ccc(-c2cccc(F)c2)nc1` [Example 579, N-[1-(7,8-Dihydro-5H-pyrano[4,3-d]pyrimidin-2-yl)piperidin-4-yl]-6-(3-fluorophenyl)nicotinamide], the IC50 came to 1.05 nM.
Take `O=C(NC1CCN(c2cccnn2)CC1)c1ccc(-c2cccc(F)c2)nc1` [Example 580, 6-(3-Fluorophenyl)-N-(1-pyridazin-3-ylpiperidin-4-yl)nicotinamide]: the IC50 came to 0.35 nM.
Take `O=C(NC1CCN(CC(F)(F)F)CC1)c1ccc(-c2cc(F)ccc2F)nc1` [Example 583, 6-(2,5-Difluorophenyl)-N-[1-(2,2,2-trifluoroethyl)piperidin-4-yl]nicotinamide]: the IC50 came to 1.05 nM.
As to `CCOC(=O)N1CCC(NC(=O)c2ccc(-c3cc(F)ccc3F)nc2)CC1` [Example 584, Ethyl 4-({[6-(2,5-Difluorophenyl)pyridine-3-yl]carbonyl}amino)piperidine-1-carboxylate], the IC50 was 1.38 nM.
Take `O=C(NC1CCN(CC(F)(F)F)CC1)c1ccc(-c2ccccc2F)nc1` [Example 585, 6-(2-Fluorophenyl)-N-[1-(2,2,2-trifluoroethyl)piperidin-4-yl]nicotinamide]: the IC50 worked out at 0.734 nM.
Take `CCOC(=O)N1CCC(NC(=O)c2ccc(-c3ccccc3F)nc2)CC1` [Example 586, Ethyl 4-({[6-(2-fluorophenyl)pyridin-3-yl]carbonyl}amino)piperidine-1-carboxylate]: the IC50 is 0.787 nM.
In the case of `O=C(NC1CCN(Cc2ccccn2)CC1)c1ccc(-c2ccccc2F)nc1` [Example 587, 6-(2-Fluorophenyl)-N-[1-(pyridin-2-ylmethyl)piperidin-4-yl]nicotinamide], the IC50 is 1.19 nM.
`O=C(NC1CCN(Cc2cccc(F)c2)CC1)c1ccc(-c2ccccc2F)nc1` [Example 588, N-[1-(3-Fluorobenzyl)piperidin-4-yl]-6-(2-fluorophenyl)nicotinamide]: the IC50 came to 0.621 nM.
As to `CC(C)N1CCC(NC(=O)c2ccc(-c3cccc(F)c3)nc2)C1` (stereo not shown) [Example 589, 6-(3-Fluorophenyl)-N-(1-isopropylpyrrolidin-3-yl)nicotinamide], the IC50 came to 33.3 nM.
Take `O=C(NC1CCN(c2ncc3c(n2)CCOC3)C1)c1ccc(-c2cccc(F)c2)nc1` (stereo not shown) [Example 590, N-[1-(7,8-Dihydro-5H-pyrano[43-d]pyrimidin-2-yl)pyrrolidin-3-yl]-6-(3-fluorophenyl)nicotinamide]: the IC50 is 0.74 nM.
On to `CCCN1CCC(NC(=O)c2ccc(-c3cccc(F)c3)nc2)CC1` [Example 591, 6-(3-Fluorophenyl)-N-(1-propylpiperidin-4-yl)nicotinamide], for which the IC50 turned out to be 5.57 nM.
Turning to `CNC(=O)N1CCC(NC(=O)c2ccc(-c3cccc(F)c3)nc2)CC1` [Example 592, 6-(3-Fluorophenyl)-N-{1-[(methylamino)carbonyl]piperidin-4-yl}nicotinamide], the IC50 is 2.44 nM.
With `O=C(NC1CCN(CC2CCOCC2)CC1)c1ccc(-c2cccc(F)c2)nc1` [Example 593, 6-(3-Fluorophenyl)-N-[1-(tetrahydro-2H-pyran-4-ylmethyl)piperidin-4-yl]nicotinamide] the figure was 2 nM.
Consider `CCOC(=O)N1CCC(NC(=O)c2ccc(-c3cccc(F)c3)nc2)C1` (stereo not shown) [Example 594, Ethyl 3-({[6-(3-fluorophenyl)pyridin-3-yl]carbonyl}amino)pyrrolidine-1-carboxylate], for which the IC50 turned out to be 2.7 nM.
Turning to `O=C(NC1CCN(c2ncc3c(n2)CCC3)C1)c1ccc(-c2cccc(F)c2)nc1` (stereo not shown) [Example 595, N-[1-(6,7-Dihydro-5H-cyclopenta[d]pyrimidin-2-yl)pyrrolidin-3-yl]-6-(3-fluorophenyl)nicotinamide], the IC50 was 1.06 nM.
In the case of `O=C(NC1CCN(CC2CC2)CC1)c1ccc(-c2cccc(F)c2)nc1` [Example 596, N-[1-(Cyclopropylmethyl)piperidin-4-yl]-6-(3-fluorophenyl)nicotinamide], the IC50 is 1.93 nM.
On to `CN1CCc2nc(N3CCC(NC(=O)c4ccc(-c5cccc(F)c5)nc4)C3)ncc2C1` (stereo not shown) [Example 597, 6-(3-Fluorophenyl)-N-[1-(6-methyl-5,6,7,8-tetrahydropyrido[4.3-d]pyrimidin-2-yl)pyrrolidin-3-yl]nicotinamide], for which the IC50 worked out at 0.85 nM.
`CC(C)(C)OC(=O)N1CCC(NC(=O)c2ccc(-c3cccc(F)c3)nc2)CC1` [Example 598, tert-Butyl 4-({[6-(3-fluorophenyl)pyridin-3-yl]carbonyl}amino)piperidine-1-carboxylate]: the IC50 came to 3.79 nM.
Take `CC(C)(C)OC(=O)N1CC(NC(=O)c2ccc(-c3cccc(F)c3)nc2)C1` [Example 599]: the IC50 is 2.92 nM.
As for `CC(C)(C)C(=O)N1CC(NC(=O)c2ccc(-c3cccc(F)c3)nc2)C1` [Example 601, N-[1-(2,2-Dimethylpropanoyl)azetidin-3-yl]-6-(3-fluorophenyl)nicotinamide], the IC50 was 6.76 nM.
Turning to `Cc1cc(C)c(C#N)c(N2CC(NC(=O)c3ccc(-c4cccc(F)c4)nc3)C2)n1` [Example 602], the IC50 was found to be 2.98 nM.
With `CCc1cn2nc(N3CC(NC(=O)c4ccc(-c5cccc(F)c5)nc4)C3)ccc2n1` [Example 603, N-[1-(2-Ethylimidazo[1,2-b]pyridazin-6-yl)azetidin-3-yl]-6-(3-fluorophenyl)nicotinamide], the IC50 came to 2.29 nM.
With `O=C(NC1CN(c2ncccc2C(F)(F)F)C1)c1ccc(-c2cccc(F)c2)nc1` [Example 604, 6-(3-Fluorophenyl)-N-{1-[3-(trifluoromethyl)pyridin-2-yl]azetidin-3-yl}nicotinamide] the figure was 11.5 nM; with `O=C(NC1CN(c2cnc3ccccc3n2)C1)c1ccc(-c2cccc(F)c2)nc1` [Example 605, 6-(3-Fluorophenyl)-N-(1-quinoxalin-2-ylazetidin-3-yl)nicotinamide], 2.9 nM; with `O=C(NC1CN(c2nc3ccccc3o2)C1)c1ccc(-c2cccc(F)c2)nc1` [Example 606, N-[1-(1,3-Benzoxazol-2-yl)azetidin-3-yl]-6-(3-fluorophenyl)nicotinamide], 10.8 nM.
Turning to `Cc1ccc(C#N)c(N2CC(NC(=O)c3ccc(-c4cccc(F)c4)nc3)C2)n1` [Example 607, N-[1-(3-Cyano-6-methylpyridin-2-yl)azetidin-3-yl]-6-(3-fluorophenyl)nicotinamide], the IC50 amounted to 4.44 nM.
In the case of `O=C(NC1CCN(CC(F)(F)F)CC1)c1cnc(-c2cccc(F)c2)c(Cl)c1` [Example 620, 5-Chloro-6-(3-fluorophenyl)-N-[1-(2,2,2-trifluoroethyl)piperidin-4-yl]nicotinamide], the IC50 is 3.66 nM.
As to `O=C(NC1CCN(c2cccnn2)CC1)c1cnc(-c2cccc(F)c2)c(Cl)c1` [Example 621, 5-Chloro-6-(3-fluorophenyl)-N-(1-pyridazin-3-ylpiperidin-4-yl)nicotinamide], the IC50 is 1.59 nM.
With `CC(C)(C)C(=O)N1CCC(NC(=O)c2cnc(-c3cccc(F)c3)c(Cl)c2)CC1` [Example 622, 5-Chloro-6-(3-fluorophenyl)-N-(1-pivaloylpiperidin-4-yl)nicotinamide] the figure was 3.48 nM; with “N-(1-{[4-(3,4)-1,3-Thiazol-2-yl]methyl}piperidin-4-yl)- 6-(3-fluorophenyl)nicotinamide [Example 413]”, 1000 nM; with “N-[1-(2-Chloro-2-fluoro-5-methoxybenzyl)piperidin-4- yl]-6-(3-fluorophenyl)nicotinamide [Example 468]”, 0.375 nM.
For “N-{1-[1-(2-Ethoxyphenyl)-1H-tetrazol-5- yl]piperidin-4-yl}-6-(3-fluorophenyl)nicotinamide [Example 105]”, the IC50 is 0.655 nM.
